From patent US12168654B2, “Pyrimidine derivative containing one deuterium atom and preparation process and use thereof” (Guangdong Lewwin Pharmaceutical Research Institute Co., Ltd., priority 2018, dated 2024)
Where two headings read alike, the source gives them in different places.

Tests used:
[1] = test system: human highly metastatic hepatoma cells MHCC-97H; assay: MTT anti-tumor cell proliferation test; assay type: cell-based; conditions: for IC50: Homo sapiens, MHCC97H, MTT
Protocol: The novel pyrimidine derivatives of the invention were tested on their anti-tumor activities. Human highly metastatic hepatoma cells MHCC-97H were employed in the MTT process to evaluate the anti-tumor cell proliferation activities. The specific operation steps were as below: tumor cells were inoculated in a 96-well plate by a certain number of cells, at a cell density of 5×10^3-10×10^3/well. They were incubated in an incubator at 37° C. and a carbon dioxide concentration of 5% overnight, into which was then added the compound samples to be tested. After incubation for 72 hours, MTT was added to keep on for 4 hours, and dissolved with the addition of DMSO with shaking, and then detected with a microplate reader (570 nm).
(1) The anti-tumor cell activities of (R)-1D228 are tested. With Tepotinib and (R)-4D288 as the control, human highly metastatic hepatoma cell MHCC-97Hwas selected to evaluate the antitumor cell proliferative activities through the MTT process. The specific operation steps were as below: the tumor cells were inoculated in a 96-well culture plate following a certain number of cells, the cell density was 5×103-10×10^3/well. After cultivation in an incubator at 37° C. and at a CO2 concentration of 5% overnight, the compound samples to test were added. After cultivation for 72 hours, MTT was added to continue the cultivation for 4 hours. DMSO was then added to dissolve with stirring, and detected with a microplate reader (570 nm).

[2] = Pharmacokinetic properties in mice (IV and PO); conditions: in vivo; for AUC(0-inf) / clearance / half-life / bioavailability: Sprague-Dawley (SD); for Vd / Cmax / Tmax: Sprague-Dawley
tumor in naked mice = assay: Anti-tumor test in naked mice; assay type: in vivo; conditions: once a day for 2 weeks
in vitro = conditions: for half-life: microsomes
Protocol: Firstly, a SD rat (200-300 g) was fasted for 12 hours, and then infused rapidly with normal saline. Liver was taken out from the rat, from which liver microsomes were extracted at 0-4° C., ready for use after calibrating the concentration of liver microsomes. At 37° C., liver microsomes were incubated in combination with a certain concentration of compounds and auxiliary reagents for a period of time. The reaction was then quenched with acetonitrile.

[3] = Body weights of animals during administration; assay type: in vivo, naked mice; conditions: 8 mg/kg, in g (unit assumed)
From the text: The body weights of animals in each group during administration are shown in FIG. 9 and Table 7, showing that there were no significant changes in the body weights of mice and there were not abnormal behaviors of mice during administration.

[4] = incubation 72 hours, Table 1, read-out: Human highly metastatic hepatoma cell MHCC-97H (μM), median inhibitory concentration IC50
[5] = cultivation 72 hours, Table 4, read-out: Human highly metastatic hepatoma cell MHCC-97H (μM), inhibitory activity

Question: For C[C@@H](c1cccc(-c2ncc(SCCCN(C)C)cn2)c1)n1nc(-c2cccc(C#N)c2)ccc1=O [Compound 9], which IC50 [1, 4] is on record?
Answer: 0.189 µM

Question: Which IC50 [1, 4] does the source give for C[C@H](c1cccc(-c2ncc(SCCCN(C)C)cn2)c1)n1nc(-c2cccc(C#N)c2)ccc1=O [Compound 8] here?
Answer: 0.0139 µM

Question: What does the source list for [2H]C([2H])([2H])[C@]([2H])(c1cccc(-c2ncc(OCC3CCN(C)CC3)cn2)c1)n1nc(-c2cccc(C#N)c2)ccc1=O [(R)-14]?
Answer: AUC(0-inf) ([2]; iv, 2 mg/kg): 2440 ng·h/mL; clearance ([2]; iv, 2 mg/kg): 13.7 mL/min/kg; half-life ([2]; iv, 2 mg/kg): 269 min; AUC(0-inf) ([2]; po, 5 mg/kg): 6310 ng·h/mL; bioavailability ([2]; po, 5 mg/kg): 104%; Vd ([2]; iv, 2 mg/kg): 5.29 L/kg; Cmax ([2]; po, 5 mg/kg): 614 ng/mL; Tmax ([2]; po, 5 mg/kg): 4 h; Relative tumor proliferation rate T/C (%) (tumor in naked mice; 4 mg/kg intragastric): 2.28%; Tumor inhibition rate (%) (tumor in naked mice; 4 mg/kg intragastric): 98.0%; Tumor weights (tumor in naked mice; 4 mg/kg intragastric): 0.013 ± 0.015; Relative tumor proliferation rate T/C (%) (tumor in naked mice; 8 mg/kg intragastric): 1.59%; Tumor inhibition rate (%) (tumor in naked mice; 8 mg/kg intragastric): 98.2%; Tumor weights (tumor in naked mice; 8 mg/kg intragastric): 0.012 ± 0.006; K (in vitro; SD, rat): 0.0198 min⁻¹; half-life (in vitro; SD, rat): 35 min

Question: For CN1CCC(COc2cnc(-c3cccc(Cn4nc(-c5cccc(C#N)c5)ccc4=O)c3)nc2)CC1 [Compound 3], which IC50 [1, 5] is on record?
Answer: 0.0134 µM

Question: With CC(c1cccc(-c2ncc(OCCCN(C)C)cn2)c1)n1nc(-c2cccc(C#N)c2)ccc1=O (centres unmarked) [Compound 1] as the compound, how does the IC50 [1, 4] read?
Answer: 0.0476 µM

Question: Which IC50 [1, 4] does the source give for [2H]C([2H])([2H])[C@@]([2H])(c1cccc(-c2ncc(OCC3CCN(C)CC3)cn2)c1)n1nc(-c2cccc(C#N)c2)ccc1=O [Compound 15] here?
Answer: 1.12 µM

Question: Which results are given for CN1CCC(COc2cnc(-c3cccc(Cn4nc(-c5cccc(C#N)c5)ccc4=O)c3)nc2)CC1 [Tepotinib, reference compound]?
Answer: AUC(0-inf) ([2]; mouse, IV 2 mg/kg, read-out: AUC0-∞): 563 ng·h/mL; clearance ([2]; mouse, IV 2 mg/kg, read-out: CL (converted)): 59.2 mL/min/kg; half-life ([2]; mouse, IV 2 mg/kg, read-out: T1/2 (converted)): 107 min; bioavailability ([2]; mouse, PO 5 mg/kg vs IV 2 mg/kg, read-out: F % (bioavailability)): 67.8%; AUC(0-inf) ([2]; mouse, PO 5 mg/kg, read-out: AUC0-∞): 982 ng·h/mL; Vd ([2]; mouse, IV 2 mg/kg, read-out: Vz): 9.18 L/kg; Cmax ([2]; mouse, PO 5 mg/kg, read-out: Cmax): 211 ng/mL; Tmax ([2]; mouse, PO 5 mg/kg, read-out: Tmax): 1 h; Relative tumor proliferation rate T/C (%) (tumor in naked mice; 8 mg/kg intragastric): 4.9%; Tumor inhibition rate (%) (tumor in naked mice; 8 mg/kg intragastric): 93.8%; Tumor weights (tumor in naked mice; 8 mg/kg intragastric): 0.041 ± 0.021; body weights D 0 ([3]; D 0): 24.9 ± 1.0; body weights D 3 ([3]; D 3): 25.1 ± 1.1; body weights D 6 ([3]; D 6): 25.3 ± 1.0; body weights D 9 ([3]; D 9): 25.2 ± 1.1; body weights D 12 ([3]; D 12): 25.3 ± 1.0; body weights D 14 ([3]; D 14): 25.1 ± 1.0; half-life (in vitro; SD, rat): 20.7 min; K (in vitro; rat liver microsomes, 37° C.): 0.0134 min⁻¹

Question: With C[C@H](c1cccc(-c2ncc([Se]CCCN(C)C)cn2)c1)n1nc(-c2cccc(C#N)c2)ccc1=O [Compound 11] as the compound, how does the IC50 [1, 4] read?
Answer: 0.0117 µM

Question: Which IC50 [1, 5] does the source give for [2H]C([2H])([2H])[C@]([2H])(c1cccc(-c2ncc(OCC3CCN(C)CC3)cn2)c1)n1nc(-c2cccc(C#N)c2)ccc1=O [Compound 2] here?
Answer: 0.0037 µM

Question: Which IC50 [1, 4] does the source give for [2H]C([2H])([2H])[C@H](c1cccc(-c2ncc(OCC3CCN(C)CC3)cn2)c1)n1nc(-c2cccc(C#N)c2)ccc1=O [Compound 13] here?
Answer: 0.0035 µM

Question: For C[C@H](c1cccc(-c2ncc(OCCCN(C)C)cn2)c1)n1nc(-c2cccc(C#N)c2)ccc1=O [Compound 2], which IC50 [1, 4] is on record?
Answer: 0.014 µM

Question: For [2H]C([2H])([2H])[C@]([2H])(c1cccc(-c2ncc(OCC3CCN(C)CC3)cn2)c1)n1nc(-c2cccc(C#N)c2)ccc1=O [Compound 14], which IC50 [1, 4] is on record?
Answer: 0.0037 µM

Question: For CC(c1cccc(-c2ncc(OCC3CCN(C)CC3)cn2)c1)n1nc(-c2cccc(C#N)c2)ccc1=O (racemic) [(±)-5b], which IC50 [1, 4] is on record?
Answer: 0.0353 µM

Question: For [2H][C@@](C)(c1cccc(-c2ncc(OCC3CCN(C)CC3)cn2)c1)n1nc(-c2cccc(C#N)c2)ccc1=O [(R)-1D228], which “Relative tumor proliferation rate T/C (%)” value (tumor in naked mice; 4 mg/kg intragastric) is on record?
Answer: 1.78%

Question: What about the “Tumor inhibition rate (%)” value (tumor in naked mice; 4 mg/kg intragastric) of the same compound?
Answer: 98.3%

Question: What about the Tumor weights (tumor in naked mice; 4 mg/kg intragastric) of the same compound?
Answer: 0.011 ± 0.006

Question: And the “Relative tumor proliferation rate T/C (%)” value (tumor in naked mice; 8 mg/kg intragastric)?
Answer: 1.17%

Question: What about the “Tumor inhibition rate (%)” value (tumor in naked mice; 8 mg/kg intragastric) of the same compound?
Answer: 98.6%

Question: And the Tumor weights (tumor in naked mice; 8 mg/kg intragastric)?
Answer: 0.009 ± 0.007

Question: For C[C@@H](c1cccc(-c2ncc(OCCCN(C)C)cn2)c1)n1nc(-c2cccc(C#N)c2)ccc1=O [Compound 3], which IC50 [1, 4] is on record?
Answer: 1.04 µM

Question: For C[C@@H](c1cccc(-c2ncc(OCC3CCN(C)CC3)cn2)c1)n1nc(-c2cccc(C#N)c2)ccc1=O [(S)-5b], which IC50 [1, 4] is on record?
Answer: 0.118 µM

Question: Which IC50 [1, 4] does the source give for CC(c1cccc(-c2ncc(OCC3CCN(C)CC3)cn2)c1)n1nc(-c2cccc(C#N)c2)ccc1=O (centres unmarked) [Compound 4] here?
Answer: 0.0353 µM

Question: For CC(c1cccc(-c2ncc([Se]CCCN(C)C)cn2)c1)n1nc(-c2cccc(C#N)c2)ccc1=O (centres unmarked) [Compound 10], which IC50 [1, 4] is on record?
Answer: 0.027 µM

Question: With CC(c1cccc(-c2ncc(SCCCN(C)C)cn2)c1)n1nc(-c2cccc(C#N)c2)ccc1=O (centres unmarked) [Compound 7] as the compound, how does the IC50 [1, 4] read?
Answer: 0.0272 µM

Question: With C[C@@H](c1cccc(-c2ncc([Se]CCCN(C)C)cn2)c1)n1nc(-c2cccc(C#N)c2)ccc1=O [Compound 12] as the compound, how does the IC50 [1, 4] read?
Answer: 0.415 µM

Question: For [2H][C@@](C)(c1cccc(-c2ncc(OCC3CCN(C)CC3)cn2)c1)n1nc(-c2cccc(C#N)c2)ccc1=O [Compound 1], which IC50 [1, 5] is on record?
Answer: 0.0033 µM

Question: With C[C@]12CC[C@H]3[C@@H](CCC4=CC(=O)CC[C@@]43C)[C@@H]1CC[C@@H]2O [testosterone, reference compound] as the compound, how does the “T1/2 (metabolic half-life in liver microsomes)” value (in vitro; rat liver microsomes, 37° C.) read?
Answer: 2.3 min

Question: Which IC50 [1, 4] does the source give for CN1CCC(COc2cnc(-c3cccc(Cn4nc(-c5cccc(C#N)c5)ccc4=O)c3)nc2)CC1 [Compound 16] here?
Answer: 0.0134 µM

Question: What does the source list for C[C@H](c1cccc(-c2ncc(OCC3CCN(C)CC3)cn2)c1)n1nc(-c2cccc(C#N)c2)ccc1=O [(R)-5b]?
Answer: AUC(0-inf) ([2]; iv, 2 mg/kg): 2140 ng·h/mL; clearance ([2]; iv, 2 mg/kg): 15.5 mL/min/kg; half-life ([2]; iv, 2 mg/kg): 254 min; AUC(0-inf) ([2]; po, 5 mg/kg): 4580 ng·h/mL; bioavailability ([2]; po, 5 mg/kg): 86%; Vd ([2]; iv, 2 mg/kg): 5.69 L/kg; Cmax ([2]; po, 5 mg/kg): 495 ng/mL; Tmax ([2]; po, 5 mg/kg): 2 h; K (in vitro; SD, rat): 0.0259 min⁻¹; half-life (in vitro; SD, rat): 26.8 min; IC50 [1, 4]: 0.0037 µM; activity for inhibiting tumor cells, times that of (S)-5b ([1]; MHCC-97H, relative to (S)-5b): 31.9 times; activity for inhibiting tumor cells, times that of (±)-5b ([1]; MHCC-97H, relative to (±)-5b): 9.5 times
